Legend:
[1] = Drug localization in nucleus of human HepG2 cells by measuring quinolylated lysine residues at proteins at 20 uM measured after 24 hrs by nano LC/MS/MS analysis; format: ADME, cell-based; conditions: hepg2, 24 h
[2] = Drug localization in cell membrane of human HepG2 cells by measuring quinolylated lysine residues at proteins at 20 uM measured after 24 hrs by nano LC/MS/MS analysis; format: ADME, cell-based; conditions: hepg2, 24 h
[3] = Drug localization in cytoskeleton of human HepG2 cells by measuring quinolylated lysine residues at proteins at 20 uM measured after 24 hrs by nano LC/MS/MS analysis; format: ADME, cell-based; conditions: hepg2, 24 h
[4] = Drug localization in endosome of human HepG2 cells by measuring quinolylated lysine residues at proteins at 20 uM measured after 24 hrs by nano LC/MS/MS analysis; format: ADME, cell-based; conditions: hepg2, 24 h
[5] = Drug localization in cytoplasm of human HepG2 cells by measuring quinolylated lysine residues at proteins at 20 uM measured after 24 hrs by nano LC/MS/MS analysis; format: ADME, cell-based; conditions: hepg2, 24 h
[6] = Drug localization in mitochondria of human HepG2 cells by measuring quinolylated lysine residues at proteins at 20 uM measured after 24 hrs by nano LC/MS/MS analysis; format: ADME; conditions: hepg2, 24 h
[7] = Drug localization in cytosol of human HepG2 cells by measuring quinolylated lysine residues at proteins at 20 uM measured after 24 hrs by nano LC/MS/MS analysis; format: ADME, subcellular
[8] = Drug localization in endoplasmic reticulum of human HepG2 cells by measuring quinolylated lysine residues at proteins at 20 uM measured after 24 hrs by nano LC/MS/MS analysis; format: ADME, cell-based; conditions: hepg2, 24 h
[9] = Drug localization in golgi apparatus of human HepG2 cells by measuring quinolylated lysine residues at proteins at 20 uM measured after 24 hrs by nano LC/MS/MS analysis; format: ADME, cell-based; conditions: hepg2, 24 h
HepG2 = test: Cytotoxicity against human HepG2 cells assessed as inhibition of cell viability at 25 uM measured after 48 hrs by CCK-8 assay; format: functional
[10] = biological target: T1, Replicase polyprotein 1ab (Severe acute respiratory syndrome coronavirus 2, UniProt P0DTD1); test: Inhibition of SARS-CoV-2 3CLpro preincubated for 60 mins followed by addition of Dabcyl-KNSTLQSGLRKE-Edans fluorogenic peptide as substrate by FRET assay
[11] = biological target: T1, Replicase polyprotein 1ab; test: Inhibition of SARS-CoV-2 3CLpro using Dabcyl-KNSTLQSGLRKE-Edans fluorogenic peptide as substrate by FRET assay

Compound | Drug uptake [1] [%] | Drug uptake [2] [%] | Drug uptake [3] [%] | Drug uptake [4] [%] | Drug uptake [5] [%] | Drug uptake [6] [%] | Drug uptake [7] [%] | Drug uptake [8] [%] | Drug uptake [9] [%] | Activity (HepG2) [%] | IC50 [10] [µM] | IC50 [11] [µM]
C#Cc1ccc2c(ccc3[n+]2C(OC)CS3)c1 (stereo unspecified) | 27.19 | 8.77 | 7.02 | 3.51 | 14.04 | 2.63 | 17.54 | 4.39 | 5.26 | – | – | –
COC1CSc2ccc3cc(C(=O)NCCCCCN4C(=O)c5cccc6c(N(C)C)ccc(c56)C4=O)ccc3[n+]21.Cl.[Cl-] (stereo unspecified) | – | – | – | – | – | – | – | – | – | 90 | – | –
C#Cc1ccc2c(ccc3[n+]2C(OC)C[Se]3)c1 (stereo unspecified) | 22.61 | 11.88 | 11.11 | 2.3 | 15.71 | 2.3 | 19.16 | 1.53 | 1.53 | – | 3.66 | 75
